Data taken from article PMC5394527 (Journal of Medicinal Chemistry, 2017).
Like-named read-outs stand apart in the source and are kept apart here.

Experiments:
[1] = system: SJSA-1 osteosarcoma tumor xenograft; details: for antitumor activity in SJSA-1 xenograft model: mice; for antitumor efficacy (regression): last line of Table 6, SJSA-1 xenograft model in mice; for weight loss of mice during the experiment: SJSA-1 xenograft experiment, 30 or 100 mg/kg daily for 14 days
[2] = system: p53 activation (MDM2, p53, p21, cleaved PARP, cleaved caspase-3) in SJSA-1 tumors; details: mice, single oral dose 100 mg/kg
[3] = system: SJSA-1 cancer cell line; details: cited from earlier work
[4] = system: SJSA-1 osteosarcoma tumor xenograft; details: mice; cited from earlier work
[5] = molecular target: MDM2 (Homo sapiens, UniProt Q00987)
Sequence of MDM2 (Q00987 whole entry): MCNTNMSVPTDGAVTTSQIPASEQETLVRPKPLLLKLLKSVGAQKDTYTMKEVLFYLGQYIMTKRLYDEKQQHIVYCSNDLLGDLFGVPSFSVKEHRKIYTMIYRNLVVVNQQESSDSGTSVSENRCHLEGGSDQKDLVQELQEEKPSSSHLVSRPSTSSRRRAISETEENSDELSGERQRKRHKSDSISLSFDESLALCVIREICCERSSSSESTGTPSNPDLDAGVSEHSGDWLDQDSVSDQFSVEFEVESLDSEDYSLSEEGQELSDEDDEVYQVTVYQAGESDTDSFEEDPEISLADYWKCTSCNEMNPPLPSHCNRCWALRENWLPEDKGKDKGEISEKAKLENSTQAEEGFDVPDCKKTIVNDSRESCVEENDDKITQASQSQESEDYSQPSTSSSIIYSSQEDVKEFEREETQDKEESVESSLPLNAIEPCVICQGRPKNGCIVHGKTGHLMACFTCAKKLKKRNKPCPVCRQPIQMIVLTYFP

[6] = system: SJSA-1 cancer cell line; experiment: cells; details: Homo sapiens, SJSA-1, read-out: SJSA-1 IC50, cell growth inhibition
[7] = cited from earlier work
[8] = system: RS4;11 acute lymphoblastic leukemia xenograft; details: for antitumor activity in RS4;11 xenograft model: mice
[9] = oral gavage 100 mg/kg daily for 14 days
[10] = oral 30 mg/kg daily for 14 days

## CC(C)(C)C[C@@H]1N[C@@H](C(=O)N[C@H]2CC[C@H](O)CC2)[C@H](c2cccc(Cl)c2F)[C@]12C(=O)Nc1cc(Cl)ccc12 [Compound 2, reference compound]
[1]; [9]
  antitumor activity in SJSA-1 xenograft model: complete tumor regression
[2]
  apoptosis induction (cleavage of PARP and caspase-3) in SJSA-1 xenograft tumor tissue: induce strong apoptosis
  p53 activation (MDM2, p53, p21 levels) in SJSA-1 xenograft tumor tissue: robust activation of p53
In solutions after 7 days (slow isomerization)
  purity retained: 93–96%

## O=C(N[C@H]1CC[C@H](O)CC1)[C@@H]1NC2(CCCCC2)[C@@]2(C(=O)Nc3cc(Cl)ccc32)[C@H]1c1cccc(Cl)c1F [Compound 6, (3′R,4′S,5′R)-6″-Chloro-4′-(3-chloro-2-fluorophenyl)-N-((1r,4R)-4-hydroxycyclohexyl)-2″-oxodispiro[cyclohexane-1,2′-pyrrolidine-3′,3″-indoline]-5′-carboxamide]
[3]; read-out: SJSA-1 cell growth inhibition IC50
  IC50: 190 nM
[4]
  antitumor activity in SJSA-1 xenograft model: strong tumor growth inhibition but not complete tumor regression
After 2 days in cell culture media, UPLC
  decomposition: < 1%

## CNC(=O)[C@@H]1NC2(CCNCC2)[C@@]2(C(=O)Nc3cc(Cl)ccc32)[C@H]1c1cccc(Cl)c1F [Compound 8, (3R,4′S,5′R)-6-Chloro-4′-(3-chloro-2-fluorophenyl)-N-methyl-2-oxodispiro[indoline-3,3′-pyrrolidine-2′,4″-piperidine]-5′-carboxamide]
[5]
  no appreciable binding to MDM2 up to: > 2 µM

## CN1[C@@H](c2nc(CC(=O)O)cs2)[C@H](c2cccc(Cl)c2F)[C@]2(C(=O)Nc3cc(Cl)ccc32)C12CCCCC2 [Compound 27, 2-(2-((3′R,4′S,5′R)-6″-Chloro-4′-(3-chloro-2-fluorophenyl)-1′-methyl-2″-oxodispiro[cyclohexane-1,2′-pyrrolidine-3′,3″-indolin]-5′-yl)thiazol-4-yl)acetic Acid]
[6]
  IC50: > 2000 nM

## O=C(O)[C@@H]1NC2(CCCCC2)[C@@]2(C(=O)Nc3cc(Cl)ccc32)[C@H]1c1cccc(Cl)c1F [Compound 29]
[3]; read-out: SJSA-1 IC50, cell growth inhibition
  IC50: > 10000 nM

## O=C(N[C@H]1CC[C@H](C(=O)O)CC1)[C@@H]1NC2(CCCCC2)[C@@]2(C(=O)Nc3cc(Cl)ccc32)[C@H]1c1cccc(Cl)c1F [Compound 33, (1R,4r)-4-((3′R,4′S,5′R)-6″-Chloro-4′-(3-chloro-2-fluorophenyl)-2″-oxodispiro[cyclohexane-1,2′-pyrrolidine-3′,3″-indoline]-5′-carboxamido)cyclohexane-1-carboxylic Acid]
[1]; [9]
  antitumor activity in SJSA-1 xenograft model: effectively retard tumor growth, it failed to achieve tumor regression
CH3CN/H2O, MeOH/H2O or cell culture media, 2 days
  stability in solution: can decompose in solution

## O=C(O)c1ccc(NC(=O)[C@@H]2NC3(CCCCC3)[C@@]3(C(=O)Nc4cc(Cl)ccc43)[C@H]2c2cccc(Cl)c2F)cc1 [Compound 39]
[4]
  antitumor activity in SJSA-1 xenograft model: partial tumor regression
[7]
  stability in solution: very stable in solution

## CC1(C)CCC2(CC1)N[C@@H](C(=O)Nc1ccc(C(=O)O)cc1)[C@H](c1cccc(Cl)c1F)[C@]21C(=O)Nc2cc(Cl)ccc21 [Compound 54, 4-((3′R,4′S,5′R)-6″-Chloro-4′-(3-chloro-2-fluorophenyl)-4,4-dimethyl-2″-oxodispiro[cyclo-hexane-1,2'-pyrrolidine-3′,3″-indoline]-5'-carboxamido)benzoic Acid]
[1]
  antitumor efficacy (regression): 87% regression
[1]; oral gavage 50 mg/kg daily for 14 days
  antitumor activity in SJSA-1 xenograft model: effectively retards tumor growth

## O=C(NC12CCC(C(=O)O)(CC1)CC2)[C@@H]1NC2(CCCCC2)[C@@]2(C(=O)Nc3cc(Cl)ccc32)[C@H]1c1cccc(Cl)c1F [Compound 56, 4-((3′R,4′S,5′R)-6″-Chloro-4′-(3-chloro-2-fluorophenyl)-2″-oxodispiro[cyclohexane-1,2′-pyrrolidine-3′,3″-indoline]-5′-carboxamido)bicyclo[2.2.2]octane-1-carboxylic Acid]
[1]
  weight loss of mice during the experiment: no or minimal weight loss
  antitumor efficacy (regression): no regression
[2]
  apoptosis induction (cleavage of PARP and caspase-3) in SJSA-1 xenograft tumor tissue: no cleavage of PARP and caspase-3

## O=C(NC12CCC(C(=O)O)(CC1)CC2)[C@@H]1NC2(CCC(F)(F)CC2)[C@@]2(C(=O)Nc3cc(Cl)ccc32)[C@H]1c1cccc(Cl)c1F [Compound 57, 4-((3′R,4′S,5′R)-6″-Chloro-4′-(3-chloro-2-fluorophenyl)-4,4-difluoro-2″-oxodispiro[cyclohexane-1,2′-pyrrolidine-3′,3″-indoline]-5′-carboxamido)bicyclo[2.2.2]octane-1-carboxylic Acid]
[2]
  apoptosis induction (cleavage of PARP and caspase-3) in SJSA-1 xenograft tumor tissue: modest effect on activation of p53 and induction of cleavage of PARP and caspase-3

## CS(=O)(=O)NC(=O)C12CCC(NC(=O)[C@@H]3NC4(CCCCC4)[C@@]4(C(=O)Nc5cc(Cl)ccc54)[C@H]3c3cccc(Cl)c3F)(CC1)CC2 [Compound 58, (3′R,4′S,5′R)-6″-Chloro-4′-(3-chloro-2-fluorophenyl)-N-(4-((methylsulfonyl)carbamoyl)-bicyclo[2.2.2]octan-1-yl)-2″-oxodispiro[cyclohexane-1,2′-pyrrolidine-3′,3″-indoline]-5′-carboxamide]
[2]
  apoptosis induction (cleavage of PARP and caspase-3) in SJSA-1 xenograft tumor tissue: modest effect on activation of p53 and induction of cleavage of PARP and caspase-3

## CN1[C@@H](C(=O)NC23CCC(C(=O)O)(CC2)CC3)[C@H](c2cccc(Cl)c2F)[C@]2(C(=O)Nc3cc(Cl)ccc32)C12CCCCC2 [Compound 59, 4-((3′R,4′S,5′R)-6″-Chloro-4′-(3-chloro-2-fluorophenyl)-1′-methyl-2″-oxodispiro[cyclohexane-1,2′-pyrrolidine-3′,3″-indoline]-5′-carboxamido)bicyclo[2.2.2]octane-1-carboxylic Acid]
[1]
  weight loss of mice during the experiment: no or minimal weight loss
[1]; [10]
  antitumor activity in SJSA-1 xenograft model: effectively inhibits tumor growth
[1]; [9]
  antitumor activity in SJSA-1 xenograft model: complete and long-lasting tumor regression
[2]
  persistence of p53 activation in SJSA-1 xenograft tumor tissue: 24 h

## CCN1[C@@H](C(=O)NC23CCC(C(=O)O)(CC2)CC3)[C@H](c2cccc(Cl)c2F)[C@]2(C(=O)Nc3cc(Cl)ccc32)C12CCCCC2 [Compound 60, 4-((3′R,4′S,5′R)-6″-Chloro-4′-(3-chloro-2-fluorophenyl)-1′-ethyl-2″-oxodispiro[cyclohexane-1,2′-pyrrolidine-3′,3″-indoline]-5′-carboxamido)bicyclo[2.2.2]octane-1-carboxylic Acid]
[1]
  weight loss of mice during the experiment: no or minimal weight loss
[1]; [10]
  antitumor activity in SJSA-1 xenograft model: effectively inhibits tumor growth
[1]; [9]
  antitumor activity in SJSA-1 xenograft model: complete and long-lasting tumor regression
[8]; 200 mg/kg weekly dosing for 3 weeks
  antitumor activity in RS4;11 xenograft model: partial tumor regression
[8]; mice, 50, 75, 100 mg/kg daily or 200 mg/kg weekly
  tolerability in RS4;11 xenograft experiment: well tolerated at all doses and schedules
[8]; oral 100 mg/kg daily for 14 days
  antitumor activity in RS4;11 xenograft model: partial tumor regression
[2]
  persistence of p53 activation in SJSA-1 xenograft tumor tissue: 24 h
1:1 CH3CN/H2O, 1:1 MeOH/H2O, cell culture media, 7 days
  chemical stability in solutions: very stable in solutions for a period of 7 days
